According to US4132778A, “Antibiotic A-32887” (Eli Lilly and Company, priority 1977, dated 1979):

Key:
Propionibacterium acnes = experiment: Standard agar-dilution assay, anaerobic bacteria, Table IX; type: cell-based; conditions: 24-hour incubation
[1] = tested on: Bacteriodes melaninogenicus 1856/28; experiment: as above; type: cell-based; conditions: 24-hour incubation
Experimental: (§1) Table IX summarizes the MIC's at which A-32887 (Na-K salt) inhibits various anaerobic bacteria, as determined by standard agar-dilution assay. End points were read after 24-hour incubation.

Actinomyces israelii = experiment: as above; type: cell-based; conditions: 24-hour incubation
Experimental: as §1

Clostridium septicum = experiment: as above; type: cell-based; conditions: 24-hour incubation
Experimental: as §1

[2] = tested on: Bacteriodes fragilis ssp fragilis 111; experiment: as above; type: cell-based; conditions: 24-hour incubation
Experimental: as §1

Bacteriodes vulgatis = experiment: as above; type: cell-based; conditions: 24-hour incubation
Experimental: as §1

[3] = tested on: Bacteriodes melaninogenicus 2736; experiment: as above; type: cell-based; conditions: 24-hour incubation
coccidia = experiment: Feeding experiments in chicks challenged with coccidia; type: in vivo, Eimeria species; chicks; conditions: levels as low as 40 ppm in feed of young chickens
[4] = tested on: powdery mildew disease in bean plants; experiment: Plant disease test, spray; type: in vivo; conditions: 400 ppm as a spray
Description: The A-32887 compounds are also useful in the treatment of certain plant diseases.

Eubacterium aerofaciens = experiment: Standard agar-dilution assay, anaerobic bacteria, Table IX; type: cell-based; conditions: 24-hour incubation
[5] = tested on: E. tenella AND E. acervulina; experiment: Anticoccidial feeding test in chicks, E. tenella and E. acervulina (Table XII); type: in vivo; design: Average Lesion Score, Intestinal / Average Lesion Score, Cecal: scale not given here; conditions: for Percent Mortality: due to coccidiosis; for Percent Weight Gain: normal controls = 100%
Experimental: ^1 6 replicates; 5 birds each
^2 Infection inoculum 48 hours post-medication onset

[6] = tested on: Peptostreptococcus intermedius; experiment: Standard agar-dilution assay, anaerobic bacteria, Table IX; type: cell-based; conditions: 24-hour incubation
[7] = tested on: Streptococcus pyogenes (Group A); experiment: Conventional disc-diffusion method, Table VII; type: cell-based
Description: (§2) The activity of A-32887 (Na-K salt) against illustrative bacteria, as measured by the conventional disc-diffusion method, is summarized in Table VI.

[8] = tested on: Staphylococcus aureus 3055; experiment: Conventional disc-diffusion method, Table VII; type: cell-based
Description: as §2

[9] = tested on: Streptococcus sp. (Group D); experiment: Conventional disc-diffusion method, Table VII; type: cell-based
Description: as §2

Diplococcus pneumoniae = experiment: Conventional disc-diffusion method, Table VII; type: cell-based
Description: as §2

Bacteriodes corrodens = experiment: Standard agar-dilution assay, anaerobic bacteria, Table IX; type: cell-based; conditions: 24-hour incubation
[10] = tested on: Peptostreptococcus anaerobius; experiment: as above; type: cell-based; conditions: 24-hour incubation
E. tenella AND E. maxima = experiment: Anticoccidial feeding test in chicks, E. tenella and E. maxima (Table XI); type: in vivo; design: Average Lesion Score, Total Intestinal / Average Lesion Score, Cecal: scale not given here; Mortality: unit not given here; conditions: for Mortality: due to coccidiosis
Experimental: ^1 70,000 oocysts/bird of each of E. tenella and E. maxima
^2 Infected 48 hours postmedication; terminated seven days
^3 Four replicates; five birds/replicate

[11] = tested on: Bacteriodes fragilis ssp thetaiotaomicron; experiment: Standard agar-dilution assay, anaerobic bacteria, Table IX; type: cell-based; conditions: 24-hour incubation
[12] = tested on: Staphylococcus aureus 3074 (Penicillin G-resistant); experiment: Conventional disc-diffusion method, Table VII; type: cell-based
Description: as §2
*Penicillin G-resistant

Clostridium perfringens = type: cell-based; conditions: 24-hour incubation
[13] = tested on: Pasteurella multocida (bovine); experiment: Standard agar-dilution assay (MIC), Table VI; type: cell-based; conditions: Na-K salt
Description: Antibiotic A-32887 inhibits the growth of pathogenic bacteria, especially gram-positive bacteria. Table VI summarizes the minimal inhibitory concentrations (MIC), as measured by standard agar-dilution assays, at which A-32887 (Na-K salt) inhibits certain bacteria.

[14] = tested on: E. tenella, E. maxima and E. acervulina; experiment: Anticoccidial feeding test in chicks, E. tenella, E. maxima and E. acervulina (Table XIII); conditions: for Percent Mortality: due to coccidiosis; for Percent Weight Gain: per survivor
housefly = experiment: Insecticidal activity; type: in vivo; conditions: 1000 ppm
Description: (§3) In another aspect, the A-32887 compounds are useful as insecticides. For example, A-32887 (Na-K salt) is active against insects such as Mexican bean beetle, Southern armyworm and housefly when applied at a rate of 1000 ppm.

Mexican bean beetle = experiment: Insecticidal activity; type: in vivo; conditions: 1000 ppm
Description: as §3

Southern armyworm = experiment: Insecticidal activity; type: in vivo; conditions: 1000 ppm
Description: as §3

[15] = tested on: Peptococcus asaccharolyticus; experiment: Standard agar-dilution assay, anaerobic bacteria, Table IX; type: cell-based; conditions: 24-hour incubation
[16] = tested on: Staphylococcus aureus 3130 (Methicillin-resistant); experiment: Conventional disc-diffusion method, Table VII; type: cell-based
Description: as §2
**Methicillin-resistant

## CO[C@H]1CC[C@H](OC2[C@@H](C)[C@@](C)(O)O[C@H]([C@H]3CC[C@H]([C@@H]4CC[C@H]([C@@]5(C)O[C@]6(O[C@H](C[C@@H]7O[C@](O)([C@@H](O)C(=O)O)[C@@H](C)[C@H](OC)[C@@]7(C)OC)C[C@@H](OC)[C@H]6C)[C@H](C)[C@H]5OC)O4)O3)[C@H]2C)O[C@@H]1C.[K+].[Na+] (some centres unmarked) [A-32887 (Na-K salt)]
Propionibacterium acnes
  MIC: ≤ 0.5 µg/mL
[1]
  MIC: 32 µg/mL
Actinomyces israelii
  MIC: ≤ 0.5 µg/mL
Clostridium septicum
  MIC: ≤ 0.5 µg/mL
[2]
  MIC: 2 µg/mL
Bacteriodes vulgatis
  MIC: 4 µg/mL
[3]
  MIC: 2 µg/mL
coccidia
  mortality and number of lesions in challenged chicks: decreases mortality and the number of lesions
[4]
  inhibition of powdery mildew disease: inhibits powdery mildew disease
Eubacterium aerofaciens
  MIC: ≤ 0.5 µg/mL
[5]; 62 ppm
  Average Lesion Score, Cecal: 0.1
  Average Lesion Score, Intestinal: 0.9
  Percent Mortality: 0%
  Percent Weight Gain: 97%
[5]; 77 ppm
  Average Lesion Score, Cecal: 0
  Average Lesion Score, Intestinal: 0.7
  Percent Mortality: 0%
  Percent Weight Gain: 90%
[5]; 100 ppm
  Average Lesion Score, Cecal: 0.1
  Average Lesion Score, Intestinal: 0.6
  Percent Mortality: 0%
  Percent Weight Gain: 85%
[5]; 121 ppm
  Average Lesion Score, Cecal: 0
  Average Lesion Score, Intestinal: 0.3
  Percent Mortality: 0%
  Percent Weight Gain: 73%
[6]
  MIC: 1.0 µg/mL
[7]; 30 mcg/disc
  Zone of Inhibition: 14.0 mm
[7]; 300 mcg/disc
  Zone of Inhibition: 17.5 mm
[8]; 30 mcg/disc
  Zone of Inhibition: 12.0 mm
[8]; 300 mcg/disc
  Zone of Inhibition: 15.6 mm
[9]; 30 mcg/disc
  Zone of Inhibition: 13.7 mm
[9]; 300 mcg/disc
  Zone of Inhibition: 14.7 mm
Diplococcus pneumoniae; 30 mcg/disc
  Zone of Inhibition: 16.0 mm
Diplococcus pneumoniae; 300 mcg/disc
  Zone of Inhibition: 18.0 mm
Bacteriodes corrodens
  MIC: 2 µg/mL
[10]
  MIC: ≤ 0.5 µg/mL
E. tenella AND E. maxima; 40 ppm in feed
  Average Lesion Score, Cecal: 1.6
  Average Lesion Score, Total Intestinal: 4.9
  Mortality: 0
E. tenella AND E. maxima; 60 ppm in feed
  Average Lesion Score, Cecal: 0.6
  Average Lesion Score, Total Intestinal: 5.9
  Mortality: 0
E. tenella AND E. maxima; 80 ppm in feed
  Average Lesion Score, Cecal: 0.3
  Average Lesion Score, Total Intestinal: 3.0
  Mortality: 0
E. tenella AND E. maxima; 100 ppm in feed
  Average Lesion Score, Cecal: 0
  Average Lesion Score, Total Intestinal: 1.6
  Mortality: 0
[11]
  MIC: 2 µg/mL
[12]; 30 mcg/disc
  Zone of Inhibition: 12.7 mm
[12]; 300 mcg/disc
  Zone of Inhibition: 16.0 mm
Clostridium perfringens
  MIC: ≤ 0.5 µg/mL
[13]
  MIC: 50.00 µg/mL
[14]; 25 ppm
  Average Lesion Score, Cecal: 3.9
  Average Lesion Score, Intestinal: 1.1
  Percent Mortality: 35%
  Percent Weight Gain: 57%
[14]; 50 ppm
  Average Lesion Score, Cecal: 3.8
  Average Lesion Score, Intestinal: 1.8
  Percent Mortality: 0%
  Percent Weight Gain: 79%
[14]; 75 ppm
  Average Lesion Score, Cecal: 2.0
  Average Lesion Score, Intestinal: 0.9
  Percent Mortality: 0%
  Percent Weight Gain: 90%
[14]; 100 ppm
  Average Lesion Score, Cecal: 0.1
  Average Lesion Score, Intestinal: 0
  Percent Mortality: 0%
  Percent Weight Gain: 93%
[14]; 100 ppm, pens without deaths only
  Feed/Gain: 1.50
housefly
  insecticidal activity: active
Mexican bean beetle
  insecticidal activity: active
Southern armyworm
  insecticidal activity: active
[15]
  MIC: ≤ 0.5 µg/mL
[16]; 30 mcg/disc
  Zone of Inhibition: 15.0 mm
[16]; 300 mcg/disc
  Zone of Inhibition: 15.2 mm
